Several values for one entry are separate records, joined by “and”; a condition that tells them apart may be missing. Equal entries are not always repeated. Toxic doses and inconclusive results are not listed. Cut-off read from the data, not from the text of the source: active = T/C of 150% or more; inactive = T/C below 125%.
Test system: L1210 leukemia ip in BDF1 mice, survival T/C
Assay: NCI In Vivo Anticancer Drug Screen. Data for tumor model L1210 Leukemia (intraperitoneal) in B6D2F1 (BDF1) mice
Details: endpoint: mean survival time, higher = longer survival
Method in brief: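 Tumor cells were implanted, animals were treated, and survival was followed. The result divides the treated measurement by the vehicle-control measurement.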

[1] = dose: 100.0 mg/kg/injection, schedule: Q04DX002 (ip), vehicle: saline with Tween-80
[2] = dose: 200.0 mg/kg/injection, schedule: Q04DX002 (ip), vehicle: saline with Tween-80
[3] = dose: 400.0 mg/kg/injection, schedule: Q04DX002 (ip), vehicle: saline with Tween-80
[4] = dose: 100.0 mg/kg/injection, schedule: Q01DX009 (ip), vehicle: Klucel (hydroxypropylcellulose) (HPC)
[5] = dose: 200.0 mg/kg/injection, schedule: Q01DX009 (ip), vehicle: Klucel (hydroxypropylcellulose) (HPC)
[6] = dose: 100.0 mg/kg/injection, schedule: Q01DX009 (ip), vehicle: saline with Tween-80
[7] = dose: 200.0 mg/kg/injection, schedule: Q01DX009 (ip), vehicle: saline with Tween-80
[8] = dose: 100.0 mg/kg/injection, schedule: Q01DX001 (ip), vehicle: saline with Tween-80
[9] = dose: 200.0 mg/kg/injection, schedule: Q01DX001 (ip), vehicle: saline with Tween-80
[10] = dose: 400.0 mg/kg/injection, schedule: Q01DX001 (ip), vehicle: saline with Tween-80
[11] = dose: 100.0 mg/kg/injection, schedule: Q04DX003 (ip), vehicle: saline with Tween-80
[12] = dose: 200.0 mg/kg/injection, schedule: Q04DX003 (ip), vehicle: saline with Tween-80
[13] = dose: 400.0 mg/kg/injection, schedule: Q04DX003 (ip), vehicle: saline with Tween-80
[14] = dose: 100.0 mg/kg/injection, schedule: Q01DX001 (ip), vehicle: saline
[15] = dose: 100.0 mg/kg/injection, schedule: Q01DX009 (ip), vehicle: saline
[16] = dose: 200.0 mg/kg/injection, schedule: Q01DX001 (ip), vehicle: saline
[17] = dose: 100.0 mg/kg/injection, schedule: Q04DX002 (ip), vehicle: Klucel (hydroxypropylcellulose) (HPC)
[18] = dose: 200.0 mg/kg/injection, schedule: Q04DX002 (ip), vehicle: Klucel (hydroxypropylcellulose) (HPC)
[19] = dose: 400.0 mg/kg/injection, schedule: Q01DX009 (ip), vehicle: saline with Tween-80
[20] = dose: 400.0 mg/kg/injection, schedule: Q04DX002 (ip), vehicle: Klucel (hydroxypropylcellulose) (HPC)
[21] = dose: 50.0 mg/kg/injection, schedule: Q01DX001 (ip), vehicle: saline
[22] = dose: 400.0 mg/kg/injection, schedule: Q01DX001 (ip), vehicle: saline

Measured: T/C

Cc1ccc(S(=O)(=O)N/N=C(\CSc2ccc(N(C)C)cc2)c2ccccc2)cc1
inactive: dose: 50.0 mg/kg/injection, schedule: Q04DX002 (ip), vehicle: saline with Tween-80 105 % of control | [1] 86 % of control | [2] 97 % of control | [3] 90 % of control

C=C1C(=O)OC2C3=C(C)C(=O)CC3C3(C)CC3C12 (configuration not stated)
inactive: dose: 50.0 mg/kg/injection, schedule: Q01DX001 (ip), vehicle: water 103 % of control

CCOc1ccc(/C=C2\C=Nc3ccccc32)cc1
inactive: [4] 91 % of control | [5] 99 % of control

CCCCCCCCCCCCCCCCOS(=O)(=O)O
inactive: dose: 37.5 mg/kg/injection, schedule: Q04DX003 (ip), vehicle: saline 103 % of control | dose: 75.0 mg/kg/injection, schedule: Q01DX001 (ip), vehicle: saline 106 % of control | dose: 75.0 mg/kg/injection, schedule: Q04DX003 (ip), vehicle: saline 97 % of control | dose: 150.0 mg/kg/injection, schedule: Q01DX001 (ip), vehicle: saline 90 % of control | dose: 150.0 mg/kg/injection, schedule: Q04DX003 (ip), vehicle: saline 96 % of control

C=C(C)C1C/C(=N\O)C(C)/C(=N/O)C1 (configuration not stated)
inactive: [1] 100 % of control | [2] 96 % of control | [3] 93 % of control

CCOC(=O)C(=CNc1ccc(OC)cc1[N+](=O)[O-])C(=O)OCC
inactive: dose: 12.5 mg/kg/injection, schedule: Q01DX009 (ip), vehicle: saline with Tween-80 97 % of control | dose: 25.0 mg/kg/injection, schedule: Q01DX009 (ip), vehicle: saline with Tween-80 90 % of control | [6] 94 % of control and 90 % of control | [1] 95 % of control | [7] 105 % of control | [2] 88 % of control | [3] 92 % of control

COc1ccccc1-n1c(=O)c(N=Nc2ccc(Br)cc2)c(O)n(-c2ccccc2C)c1=S
inactive: dose: 100.0 mg/kg/injection, schedule: Q01DX001 (ip), vehicle: Klucel (hydroxypropylcellulose) (HPC) 109 % of control | dose: 200.0 mg/kg/injection, schedule: Q01DX001 (ip), vehicle: Klucel (hydroxypropylcellulose) (HPC) 98 % of control | dose: 400.0 mg/kg/injection, schedule: Q01DX001 (ip), vehicle: Klucel (hydroxypropylcellulose) (HPC) 98 % of control

O=P(CCC(O)c1ccccc1)(c1ccccc1)c1ccccc1 (configuration not stated)
inactive: [8] 93 % of control | [9] 106 % of control | [10] 100 % of control

O=C(Nc1ccccc1F)C(Br)C(Br)c1ccccc1 (configuration not stated)
inactive: [4] 92 % of control | [5] 100 % of control | dose: 400.0 mg/kg/injection, schedule: Q01DX009 (ip), vehicle: Klucel (hydroxypropylcellulose) (HPC) 96 % of control

CCOC1(OCC)CS(=O)(=O)C1Cl (configuration not stated)
inactive: dose: 50.0 mg/kg/injection, schedule: Q01DX001 (ip), vehicle: saline with Tween-80 107 % of control | [8] 98 % of control | [9] 98 % of control

CCCC(C)(Cl)C(=O)Nc1cccc(OC(=O)NC)c1 (configuration not stated)
inactive: [11] 92 % of control | [12] 90 % of control | [13] 90 % of control

CCC(C)NC(=O)Oc1cccc(NC(=O)N(C)C)c1 (configuration not stated)
inactive: [11] 92 % of control | [12] 89 % of control | [13] 90 % of control

CC(=O)N(CCCc1ccccc1)C(C)(C)C
inactive: dose: 50.0 mg/kg/injection, schedule: Q01DX009 (ip), vehicle: saline 104 % of control | [14] 110 % of control | [15] 110 % of control | [16] 114 % of control

c1ccc(C[N+]23CCC(CC2)CC3)cc1
inactive: dose: 3.13 mg/kg/injection, schedule: Q01DX009 (ip), vehicle: saline 95 % of control | dose: 6.25 mg/kg/injection, schedule: Q01DX009 (ip), vehicle: saline 99 % of control | dose: 12.5 mg/kg/injection, schedule: Q01DX009 (ip), vehicle: saline 101 % of control

OCC(F)(F)C(F)(F)C(F)(F)CO
inactive: [15] 87 % of control | dose: 200.0 mg/kg/injection, schedule: Q01DX009 (ip), vehicle: saline 90 % of control | dose: 400.0 mg/kg/injection, schedule: Q01DX009 (ip), vehicle: saline 100 % of control

O=C1c2ccccc2C(=O)N1SN1C(=O)c2ccccc2C1=O
inactive: dose: 25.0 mg/kg/injection, schedule: Q01DX009 (ip), vehicle: Klucel (hydroxypropylcellulose) (HPC) 92 % of control | dose: 50.0 mg/kg/injection, schedule: Q01DX009 (ip), vehicle: Klucel (hydroxypropylcellulose) (HPC) 93 % of control | [4] 97 % of control

C(=C\c1ccccc1)/C=N/N=C/C=C/c1ccccc1
inactive: dose: 100.0 mg/kg/injection, schedule: Q01DX001 (ip), vehicle: other 105 % of control | [6] 94 % of control | [17] 100 % of control | [11] 90 % of control | dose: 200.0 mg/kg/injection, schedule: Q01DX001 (ip), vehicle: other 97 % of control | [7] 90 % of control | [18] 96 % of control | [12] 89 % of control | dose: 400.0 mg/kg/injection, schedule: Q01DX001 (ip), vehicle: other 94 % of control | [19] 94 % of control | [20] 100 % of control | [13] 92 % of control

Cc1no[n+]([O-])c1NC(=O)OCc1ccccc1
inactive: [17] 98 % of control | [18] 102 % of control | [20] 98 % of control

C=CCOC(=O)c1ccccc1N
inactive: [6] 98 % of control | [11] 104 % of control | [7] 98 % of control | [12] 101 % of control

CC(=O)OC(CC/C(C)=C/COC1CCCCO1)C(C)(C)O (configuration not stated)
inactive: [8] 102 % of control | [6] 95 % of control | [9] 103 % of control | [7] 98 % of control | [10] 105 % of control | [19] 96 % of control

O=C/C=C\C=C/Nc1ccc([N+](=O)[O-])cc1[N+](=O)[O-]
inactive: dose: 100.0 mg/kg/injection, schedule: Q04DX002 (ip), vehicle: DMSO 94 % of control | dose: 200.0 mg/kg/injection, schedule: Q04DX002 (ip), vehicle: DMSO 98 % of control | dose: 400.0 mg/kg/injection, schedule: Q04DX002 (ip), vehicle: DMSO 102 % of control

CCCCN(C)N=Nc1ccc(C(N)=O)cc1
inactive: dose: 20.0 mg/kg/injection, schedule: Q01DX Z (ip), vehicle: carboxymethylcellulose (CMC) 98 % of control | dose: 40.0 mg/kg/injection, schedule: Q01DX Z (ip), vehicle: carboxymethylcellulose (CMC) 101 % of control | dose: 60.0 mg/kg/injection, schedule: Q01DX Z (ip), vehicle: carboxymethylcellulose (CMC) 104 % of control

CCCCn1c(N)cc(=O)[nH]c1=S
inactive: [21] 100 % of control | [14] 93 % of control | [16] 106 % of control | [22] 100 % of control

COc1nc(=O)n(C2CCCO2)cc1C (configuration not stated)
inactive: [21] 95 % of control | [14] 95 % of control | [16] 104 % of control | [22] 98 % of control
